Our source for the IC50 values is patent publication US20250034135A1, “ANTI-APOPTOTIC PROTEIN BCL-2 INHIBITOR, PHARMACEUTICAL COMPOSITION AND USES THEREOF” (HANGZHOU HEALZEN THERAPEUTICS CO., LTD., priority 2021, published 2025).

SMILES strings stand for the structures. Where two headings read alike, the source gives them in different places.

One test deals with BCL2 (G101V) (Homo sapiens (Human), UniProt P10415, G101V). The test can be described thus: Molecular level activity test of anti-apoptotic protein BCL2 (G101V) (HTRF, binding to Bim peptide). The note with it: inhibition of BCL2 (G101V) binding to Bim peptide, read-out: BCL-2 (G101V). The protocol: (§1) The detection of the binding ability between anti-apoptotic protein BCL2 (G101V) and pro-apoptotic protein Bim was performed using Homogeneous Time-Resolved Fluorescence technology. The reaction of this method occurred in a white shallow 384-well plate, with a total reaction volume of 10 μL. Specifically, it included 2 μL of the compound to be tested (2% DMSO), 4 μL His-tagged recombinant protein, and 4 μL Biotin-tagged BIM protein peptide. After 1 hour of reaction, 5 L of each Anti-His and streptavidin-tagged XL665 antibody diluents diluted with a detection buffer were added. After incubating at room temperature for 4 hours, the values were read using the Envision multifunctional microplate reader to detect the effect of the compound to be tested on the binding ability of BCL2 (G101V) to BIM protein peptides.
(In general: In TR-FRET formats the signal depends on donor and acceptor labels being close together.)

A further test deals with BCL2 (Homo sapiens (Human), UniProt P10415). The test can be described thus: Molecular level activity test of anti-apoptotic protein BCL2 (HTRF, binding to Bim peptide). Conditions: HTRF, binding of BCL2 to Bim peptide; read-out: BCL2 nM (inhibitory activity, IC50). The procedure, abridged: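 Disruption of the BCL2/Bim peptide interaction is detected by homogeneous time-resolved fluorescence, using anti-His and streptavidin-XL665 reagents against His-tagged protein and biotin-tagged peptide. Compound exposure lasts 1 h before reagent addition; plates then sit 4 h at room temperature.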

The next test deals with BCL-XL (Homo sapiens (Human), UniProt Q07817). The test can be described thus: BCL-XL enzyme molecular level activity test (HTRF, binding to BIM peptide). The note with it: binding of BCL-XL to BIM peptide, read-out: BCL-XL inhibitory activity (IC50). The protocol:
In a white shallow 384-well plate, a total reaction volume was 10 μL. Specifically, it included 2 μL of the compound to be tested (2% DMSO), […] His-tagged recombinant protein, and 4 μL Biotin-tagged BIM protein peptide. After 1 hour of reaction, 5 μL of each Anti-His and streptavidin-tagged XL665 antibody diluents diluted with a detection buffer were added. After incubating at room temperature for 4 hours, the values were read using the Envision multifunctional microplate reader to detect the effect of the compound to be tested on the binding ability of BCL-XL to BIM protein peptides. The Envision parameter settings were exciting light at 320 nm, and emitting light at 615 nm and 665 nm. The binding ability of anti-apoptotic proteins to Bim protein peptides was indirectly reflected by the signal ratio of 665 nm and 615 nm. In the reaction, background wells without BCL2 and active wells for full binding of recombinant proteins without compounds and Bim protein peptides were set up.

A further test deals with BCL2 (D103Y) (Homo sapiens (Human), UniProt P10415, D103Y). The test can be described thus: Molecular level activity test of BCL2 (D103Y) (HTRF, binding to Bim peptide). The note with it: read-out: BCL-2 (D103Y) (nM) (inhibitory activity, IC50). The protocol: as §1, with “BCL2 (D103Y)” for “BCL2 (G101V)”, “5 μL” for “5 L”
In another test the test system is RS4; 11 cells. The test can be described thus: Tumor proliferation inhibitory activity test (MTS) on RS4; 11. It is filed as cell-based. Conditions: Homo sapiens, RS4-11, 72 h, 3 days incubation. On the procedure: The cell proliferation inhibitory ability of the compounds on RS4; 11 was tested using the MTS method. MTS is a tetrazolium blue salt compound that can be reduced by various dehydrogenases in live cell mitochondria to their respective colored methylzan products. Its color depth is highly correlated with the number of live cells in certain sensitive cell lines within a certain range. RS4; 11, RS4; 11 (BCL-2-G101V) and MOLT-4 tumor cells were cultivated separately and collected, 180 μL of cell suspension was added to each well in a 96-well cell plate, 20 μL of DMSO with a final concentration of 0.2% was added to the control cell wells, 20 μL of gradient diluted compounds were added to cell wells, and the treated cells were incubated in a 5% CO2 incubator at 37° C. for 3 days. After the incubation was completed, the reaction solution was prepared according to the MTS reagent kit, 20 μL was added per well and incubated in a 5% CO2 incubator at 37° C. for 3-4 hours. The absorbance value at 490 nm was read using an enzyme-linked immunosorbent assay (ELISA) plate, and the absorbance value at 690 nm was used as the background value, with OD490 nm-OD690 nm as the final raw data. The formula for calculating the inhibition ratio of compounds was as follows: inhibition ratio=(ODDMSO−ODCompound)/(ODDMSO−ODblank)×100%.

Chain of BCL-XL (Q07817 whole entry): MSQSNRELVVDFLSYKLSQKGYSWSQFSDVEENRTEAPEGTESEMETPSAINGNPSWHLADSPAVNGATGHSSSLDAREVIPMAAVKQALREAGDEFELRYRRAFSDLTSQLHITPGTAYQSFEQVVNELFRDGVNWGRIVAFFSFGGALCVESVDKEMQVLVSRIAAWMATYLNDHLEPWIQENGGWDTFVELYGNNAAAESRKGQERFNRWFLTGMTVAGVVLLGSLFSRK

Take `COc1ccc(CN2CCN(C3CC4(CCN(c5cc(Oc6cnc7[nH]cc(F)c7c6)c(C(=O)NS(=O)(=O)c6ccc(NCC7(F)CCN(C(C)C)CC7)c([N+](=O)[O-])c6)cc5F)CC4)C3)C(c3ccccc3C(C)C)C2)cc1` (stereo not drawn) [compound 062]: the IC50 on BCL2 (G101V) was under 0.01 µM; on BCL2, under 0.01 µM; on BCL-XL (values given in μM), over 1 µM.
As for `COc1cccc(CN2CCN(C3CC4(CCN(c5cc(Oc6cnc7[nH]ccc7c6)c(C(=O)NS(=O)(=O)c6ccc(NCC7(F)CCOCC7)c([N+](=O)[O-])c6)cc5F)CC4)C3)[C@H](c3ccccc3C(C)C)C2)c1` [compound 184, (R)-2-((1H-pyrrolo[2,3-b]pyrid-5-yl)oxy)-5-fluoro-N-((4-(((4-fluorotetrahydro-2H-pyran-4-yl)methyl)amino)-3-nitrophenyl)sulfonyl)-4-(2-(2-(2-isopropylphenyl)-4-(3-methoxybenzyl)piperazin-1-yl)-7-azaspiro[3.5]non-7-yl)benzamide], the IC50 is under 0.01 µM at BCL2 (G101V), under 0.01 µM at BCL2 and over 0.5 µM on BCL-XL (values in nM).
Consider `CC(C)c1ccccc1[C@@H]1CN(Cc2ccc(F)cc2)CCN1C1CC2(CCN(c3cc(Oc4cnc5[nH]ccc5c4)c(C(=O)NS(=O)(=O)c4ccc(NCC5(F)CCOCC5)c([N+](=O)[O-])c4)cc3F)CC2)C1` [compound 186, (R)-2-((1H-pyrrolo[2,3-b]pyrid-5-yl)oxy)-5-fluoro-4-(2-(4-(4-fluorobenzyl)-2-(2-isopropylphenyl)piperazin-1-yl)-7-azaspiro[3.5]non-7-yl)-N-((4-(((4-fluorotetrahydro-2H-pyran-4-yl)methyl)amino)-3-nitrophenyl)sulfonyl)benzamide], for which the IC50 at BCL2 (G101V) was under 0.01 µM; at BCL2, under 0.01 µM; at BCL-XL (values in nM), over 0.5 µM.
Consider `COc1cc(CN2CCN(C3CC4(CCN(c5cc(Oc6cnc7[nH]ccc7c6)c(C(=O)NS(=O)(=O)c6ccc(NCC7(F)CCOCC7)c([N+](=O)[O-])c6)cc5F)CC4)C3)[C@H](c3ccccc3C(C)C)C2)ccc1C1CC1` [compound 196, (R)-2-((1H-pyrrolo[2,3-b]pyrid-5-yl)oxy)-4-(2-(4-(4-cyclopropyl-3-methoxybenzyl)-2-(2-isopropylphenyl)piperazin-1-yl)-7-azaspiro[3.5]non-7-yl)-5-fluoro-N-((4-(((4-fluorotetrahydro-2H-pyran-4-yl)methyl)amino)-3-nitrophenyl)sulfonyl)benzamide], for which the IC50 was under 0.01 µM at BCL2 (G101V), under 0.01 µM at BCL2 and over 0.5 µM on BCL-XL (values in nM).
As to `CC(C)c1ccccc1[C@@H]1CN(Cc2ccc3c(c2)OCO3)CCN1C1CC2(CCN(c3cc(Oc4cnc5[nH]ccc5c4)c(C(=O)NS(=O)(=O)c4ccc(NCC5(F)CCOCC5)c([N+](=O)[O-])c4)cc3F)CC2)C1` [compound 203, (R)-2-((1H-pyrrolo[2,3-b]pyrid-5-yl)oxy)-4-(2-(4-(benzo[d][1,3]dioxocyclopent-5-ylmethyl)-2-(2-isopropylphenyl)piperazin-1-yl)-7-azaspiro[3.5]non-7-yl)-5-fluoro-N-((4-(((4-fluorotetrahydro-2H-pyran-4-yl)methyl)amino)-3-nitrophenyl)sulfonyl)benzamide], the IC50 on BCL2 (G101V) is under 0.01 µM; on BCL2, under 0.01 µM; on BCL-XL (values in nM), over 0.5 µM.
As to `CC(C)c1ccccc1[C@@H]1CN(Cc2ccc3c(c2)OCCO3)CCN1C1CC2(CCN(c3cc(Oc4cnc5[nH]ccc5c4)c(C(=O)NS(=O)(=O)c4ccc(NC[C@H]5CC[C@](C)(O)CC5)c([N+](=O)[O-])c4)cc3F)CC2)C1` [compound 226, 2-((1H-pyrrolo[2,3-b]pyrid-5-yl)oxy)-4-(2-((R)-4-((2,3-dihydrobenzo[b][1,4]dioxane-6-yl)methyl)-2-(2-isopropylphenyl)piperazin-1-yl)-7-azaspiro[3.5]non-7-yl)-5-fluoro-N-((4-((((1r, 4r)-4-hydroxy-4-methylcyclohexyl)methyl)amino)-3-nitrophenyl)sulfonyl)benzamide], the IC50 on BCL2 was under 0.01 µM; at BCL-XL (values in nM), over 0.5 µM.
The matching figures for `CC(C)c1ccccc1[C@@H]1CN(Cc2cccc3c2OCCO3)CCN1C1CC2(CCN(c3cc(Oc4cnc5[nH]ccc5c4)c(C(=O)NS(=O)(=O)c4ccc(NC[C@H]5CC[C@](C)(O)CC5)c([N+](=O)[O-])c4)cc3F)CC2)C1` [compound 227, 2-((1H-pyrrolo[2,3-b]pyrid-5-yl)oxy)-4-(2-((R)-4-((2,3-dihydrobenzo[b][1,4]dioxane-5-yl)methyl)-2-(2-isopropylphenyl)piperazin-1-yl)-7-azaspiro[3.5]non-7-yl)-5-fluoro-N-((4-((((1r, 4r)-4-hydroxy-4-methylcyclohexyl)methyl)amino)-3-nitrophenyl)sulfonyl)benzamide]: under 0.01 µM and over 0.5 µM.
For `COc1ccc(CN2CCN(C3CC4(CCN(c5cc(Oc6cnc7[nH]cc(F)c7c6)c(C(=O)NS(=O)(=O)c6ccc(NC[C@H]7CC[C@](C)(O)CC7)c([N+](=O)[O-])c6)cc5F)CC4)C3)[C@H](c3ccccc3C(C)C)C2)cc1` [compound 235, 5-fluoro-2-((3-fluoro-1H-pyrrolo[2,3-b]pyrid-5-yl)oxy)-N-((4-((((1r, 4r)-4-hydroxy-4-methylcyclohexyl)methyl)amino)-3-nitrophenyl)sulfonyl)-4-(2-((R)-2-(2-isopropylphenyl)-4-(4-methoxybenzyl)piperazin-1-yl)-7-azaspiro[3.5]non-7-yl)benzamide], the IC50 at BCL2 (G101V) is under 0.01 µM; on BCL2 (D103Y), under 10 nM; at BCL2 it was under 0.01 µM; in the test on RS4; 11 cells, 0.0005 to 0.001 µM.
Take `CC(C)c1ccccc1[C@@H]1CN(Cc2cnn(C)c2)CCN1C1CC2(CCN(c3cc(Oc4cnc5[nH]ccc5c4)c(C(=O)NS(=O)(=O)c4ccc(NC[C@H]5CC[C@](C)(O)CC5)c([N+](=O)[O-])c4)cc3F)CC2)C1` [compound 238, 2-((1H-pyrrolo[2,3-b]pyrid-5-yl)oxy)-5-fluoro-N-((4-((((1r, 4r)-4-hydroxy-4-methylcyclohexyl)methyl)amino)-3-nitrophenyl)sulfonyl)-4-(2-((R)-2-(2-isopropylphenyl)-4-((1-methyl-1H-pyrazole-4-yl)methyl)piperazin-1-yl)-7-azaspiro[3.5]non-7-yl)benzamide]: the IC50 in the test on RS4; 11 cells was in the range of 0.0005 to 0.001 µM.
